Assay results published in ChEMBL document CHEMBL3046843, “Synthesis and investigation of anti-inflammatory activity of novel nitric oxide donating hybrid drugs” (Med Chem Res, 2013).

What was measured:
Rattus norvegicus [1] = test: Anti-inflammatory activity in Rattus norvegicus (rat) assessed as inhibition of carrageenan-induced paw edema at 14 mg/kg, po administered at 1 hr prior to carrageenan-challenge measured after 4 hr relative to control; assay type: functional
Rattus norvegicus [2] = test: Anti-inflammatory activity in Rattus norvegicus (rat) assessed as inhibition of carrageenan-induced paw edema at 14 mg/kg, po administered at 1 hr prior to carrageenan-challenge measured after 3 hr relative to control; assay type: functional
Rattus norvegicus [3] = test: Ulcerogenic activity in fasted albino Rattus norvegicus (rat) assessed as stomach mucosal injury at 14 mg/kg, po administered QD for 3 days measured on day 4 by electron microscopic analysis; assay type: toxicity, organism-based; set-up: dose 14 mg/kg, route oral; conditions: in vivo, 72 h
[4] = Induction of nitric oxide release in phosphate buffer at 10^-4 M after 1 hr at pH 7.4 by Griess method in presence of L-cysteine relative to control; assay type: physicochemical; conditions: pH 7.4, 1 h, 100 µM
Rattus norvegicus [5] = test: Ulcerogenic activity in fasted albino Rattus norvegicus (rat) at 14 mg/kg, po administered QD for 3 days measured on day 4; assay type: toxicity, organism-based; set-up: dose 14 mg/kg, route oral; conditions: in vivo, 72 h
Mus musculus [6] = test: Analgesic activity in Mus musculus (mouse) assessed as inhibition of acetic acid-induced writhing at 14 mg/kg, po measured after 25 min relative to control; assay type: functional
Rattus norvegicus [7] = test: Anti-inflammatory activity in Rattus norvegicus (rat) assessed as inhibition of carrageenan-induced paw edema at 14 mg/kg, po administered at 1 hr prior to carrageenan-challenge measured after 2 hr relative to control; assay type: functional
Rattus norvegicus [8] = test: Anti-inflammatory activity in Rattus norvegicus (rat) assessed as inhibition of carrageenan-induced paw edema at 14 mg/kg, po administered at 1 hr prior to carrageenan-challenge measured after 1 hr relative to control; assay type: functional
Mus musculus [9] = test: Analgesic activity in Mus musculus (mouse) assessed as inhibition of acetic acid-induced writhing at 20 mg/kg, po measured after 25 min relative to control; assay type: functional
Rattus norvegicus [10] = test: Anti-inflammatory activity in Rattus norvegicus (rat) assessed as inhibition of carrageenan-induced paw edema at 20 mg/kg, po administered at 1 hr prior to carrageenan-challenge measured after 4 hr relative to control; assay type: functional
Rattus norvegicus [11] = test: Anti-inflammatory activity in Rattus norvegicus (rat) assessed as inhibition of carrageenan-induced paw edema at 20 mg/kg, po administered at 1 hr prior to carrageenan-challenge measured after 3 hr relative to control; assay type: functional
Rattus norvegicus [12] = test: Anti-inflammatory activity in Rattus norvegicus (rat) assessed as inhibition of carrageenan-induced paw edema at 20 mg/kg, po administered at 1 hr prior to carrageenan-challenge measured after 2 hr relative to control; assay type: functional
Rattus norvegicus [13] = test: Anti-inflammatory activity in Rattus norvegicus (rat) assessed as inhibition of carrageenan-induced paw edema at 20 mg/kg, po administered at 1 hr prior to carrageenan-challenge measured after 1 hr relative to control; assay type: functional
Rattus norvegicus [14] = test: Anti-inflammatory activity in Rattus norvegicus (rat) assessed as inhibition of carrageenan-induced paw edema at 13 mg/kg, po administered at 1 hr prior to carrageenan-challenge measured after 4 hr relative to control; assay type: functional
Rattus norvegicus [15] = test: Anti-inflammatory activity in Rattus norvegicus (rat) assessed as inhibition of carrageenan-induced paw edema at 13 mg/kg, po administered at 1 hr prior to carrageenan-challenge measured after 3 hr relative to control; assay type: functional
Rattus norvegicus [16] = test: Anti-inflammatory activity in Rattus norvegicus (rat) assessed as inhibition of carrageenan-induced paw edema at 13 mg/kg, po administered at 1 hr prior to carrageenan-challenge measured after 2 hr relative to control; assay type: functional
Rattus norvegicus [17] = test: Anti-inflammatory activity in Rattus norvegicus (rat) assessed as inhibition of carrageenan-induced paw edema at 13 mg/kg, po administered at 1 hr prior to carrageenan-challenge measured after 1 hr relative to control; assay type: functional
Rattus norvegicus [18] = test: Ulcerogenic activity in fasted albino Rattus norvegicus (rat) at 13 mg/kg, po administered QD for 3 days measured on day 4; assay type: toxicity, organism-based; set-up: dose 13 mg/kg, route oral; conditions: in vivo, 72 h
Mus musculus [19] = test: Analgesic activity in Mus musculus (mouse) assessed as inhibition of acetic acid-induced writhing at 13 mg/kg, po measured after 25 min relative to control; assay type: functional
Rattus norvegicus [20] = test: Ulcerogenic activity in fasted albino Rattus norvegicus (rat) assessed as stomach mucosal injury at 13 mg/kg, po administered QD for 3 days measured on day 4 by electron microscopic analysis; assay type: toxicity, organism-based; set-up: dose 13 mg/kg, route oral; conditions: in vivo, 72 h
Rattus norvegicus [21] = test: Anti-inflammatory activity in Rattus norvegicus (rat) assessed as inhibition of carrageenan-induced paw edema at 10 mg/kg, po administered at 1 hr prior to carrageenan-challenge measured after 1 hr relative to control; assay type: functional
Rattus norvegicus [22] = test: Ulcerogenic activity in fasted albino Rattus norvegicus (rat) at 10 mg/kg, po administered QD for 3 days measured on day 4; assay type: toxicity, organism-based; set-up: dose 10 mg/kg, route oral; conditions: in vivo, 72 h
Mus musculus [23] = test: Analgesic activity in Mus musculus (mouse) assessed as inhibition of acetic acid-induced writhing at 10 mg/kg, po measured after 25 min relative to control; assay type: functional
Rattus norvegicus [24] = test: Anti-inflammatory activity in Rattus norvegicus (rat) assessed as inhibition of carrageenan-induced paw edema at 10 mg/kg, po administered at 1 hr prior to carrageenan-challenge measured after 4 hr relative to control; assay type: functional
Rattus norvegicus [25] = test: Anti-inflammatory activity in Rattus norvegicus (rat) assessed as inhibition of carrageenan-induced paw edema at 10 mg/kg, po administered at 1 hr prior to carrageenan-challenge measured after 3 hr relative to control; assay type: functional
Rattus norvegicus [26] = test: Anti-inflammatory activity in Rattus norvegicus (rat) assessed as inhibition of carrageenan-induced paw edema at 10 mg/kg, po administered at 1 hr prior to carrageenan-challenge measured after 2 hr relative to control; assay type: functional
Rattus norvegicus [27] = test: Anti-inflammatory activity in Rattus norvegicus (rat) assessed as inhibition of carrageenan-induced paw edema at 12 mg/kg, po administered at 1 hr prior to carrageenan-challenge measured after 4 hr relative to control; assay type: functional
Rattus norvegicus [28] = test: Anti-inflammatory activity in Rattus norvegicus (rat) assessed as inhibition of carrageenan-induced paw edema at 12 mg/kg, po administered at 1 hr prior to carrageenan-challenge measured after 3 hr relative to control; assay type: functional
Rattus norvegicus [29] = test: Anti-inflammatory activity in Rattus norvegicus (rat) assessed as inhibition of carrageenan-induced paw edema at 12 mg/kg, po administered at 1 hr prior to carrageenan-challenge measured after 2 hr relative to control; assay type: functional
Rattus norvegicus [30] = test: Anti-inflammatory activity in Rattus norvegicus (rat) assessed as inhibition of carrageenan-induced paw edema at 12 mg/kg, po administered at 1 hr prior to carrageenan-challenge measured after 1 hr relative to control; assay type: functional
Rattus norvegicus [31] = test: Ulcerogenic activity in fasted albino Rattus norvegicus (rat) at 12 mg/kg, po administered QD for 3 days measured on day 4; assay type: toxicity, organism-based; set-up: dose 12 mg/kg, route oral; conditions: in vivo, 72 h
Mus musculus [32] = test: Analgesic activity in Mus musculus (mouse) assessed as inhibition of acetic acid-induced writhing at 12 mg/kg, po measured after 25 min relative to control; assay type: functional

For CC(=O)Nc1ccc(OC(=O)c2ccccc2N(CCO[N+](=O)[O-])c2ccccc2)cc1, the inhibition in vivo at 14 mg/kg (Rattus norvegicus [1]) was 59.6%, the inhibition in vivo at 14 mg/kg (Rattus norvegicus [2]) was 65.8% and the Activity (Rattus norvegicus [3]) was “Non-toxic”. The Activity [4] was 10.71%, the Activity (Rattus norvegicus [5]) was “Non-toxic” and the inhibition in vivo at 14 mg/kg (Mus musculus [6]) was 15.4%. The inhibition in vivo at 14 mg/kg (Rattus norvegicus [7]) was 55.2% and the inhibition in vivo at 14 mg/kg (Rattus norvegicus [8]) was 26.7%.
In the case of CC(=O)Nc1ccc(OC(=O)c2ccccc2N(CCO[N+](=O)[O-])c2ccc(C)cc2)cc1, the inhibition in vivo at 14 mg/kg (Rattus norvegicus [1]) was 36.8%, the inhibition in vivo at 14 mg/kg (Rattus norvegicus [2]) was 24.4% and the Activity (Rattus norvegicus [3]) was “Non-toxic”. The Activity [4] was 7.31%, the Activity (Rattus norvegicus [5]) was “Non-toxic” and the inhibition in vivo at 14 mg/kg (Mus musculus [6]) was 21.8%. It also gave an inhibition in vivo at 14 mg/kg (Rattus norvegicus [7]) of 18% and an inhibition in vivo at 14 mg/kg (Rattus norvegicus [8]) of 30%.
O=C(O)Cc1ccccc1Nc1c(Cl)cccc1Cl [DICLOFENAC SODIUM] showed an inhibition in vivo at 20 mg/kg (Mus musculus [9]) of 8.2%, an inhibition in vivo at 20 mg/kg (Rattus norvegicus [10]) of 73.4% and an inhibition in vivo at 20 mg/kg (Rattus norvegicus [11]) of 73.3%. The inhibition in vivo at 20 mg/kg (Rattus norvegicus [12]) was 42.1% and the inhibition in vivo at 20 mg/kg (Rattus norvegicus [13]) was 45%.
Compound CC(=O)Nc1ccc(OC(=O)c2ccccc2N(CCO[N+](=O)[O-])c2ccc([N+](=O)[O-])cc2)cc1 has an inhibition in vivo at 13 mg/kg (Rattus norvegicus [14]) of 32.1%, an inhibition in vivo at 13 mg/kg (Rattus norvegicus [15]) of 23.3% and an inhibition in vivo at 13 mg/kg (Rattus norvegicus [16]) of 11.9%. For the same compound, the inhibition in vivo at 13 mg/kg (Rattus norvegicus [17]) was 6.67%, the Activity [4] was 6.98% and the Activity (Rattus norvegicus [18]) was “Non-toxic”. The inhibition in vivo at 13 mg/kg (Mus musculus [19]) was 13.8% and the Activity (Rattus norvegicus [20]) was “Non-toxic”.
For CC(=O)Nc1ccc(OC(=O)c2ccc(N(CCO[N+](=O)[O-])c3ccccc3C(=O)Oc3ccc(NC(C)=O)cc3)cc2)cc1, the inhibition in vivo at 10 mg/kg (Rattus norvegicus [21]) was 11.7%, the Activity [4] was 2.46% and the Activity (Rattus norvegicus [22]) was “Non-toxic”. It also gave an inhibition in vivo at 10 mg/kg (Mus musculus [23]) of 11.2%, an inhibition in vivo at 10 mg/kg (Rattus norvegicus [24]) of 12.1% and an inhibition in vivo at 10 mg/kg (Rattus norvegicus [25]) of 13.7%. It also gave an inhibition in vivo at 10 mg/kg (Rattus norvegicus [26]) of 18.7%.
CC(=O)Nc1ccc(OC(=O)c2ccccc2N(CCO[N+](=O)[O-])c2ccc(S(N)(=O)=O)cc2)cc1 gave an inhibition in vivo at 12 mg/kg (Rattus norvegicus [27]) of 9.41%, an inhibition in vivo at 12 mg/kg (Rattus norvegicus [28]) of 8.46% and an inhibition in vivo at 12 mg/kg (Rattus norvegicus [29]) of 11.5%. For the same compound, the inhibition in vivo at 12 mg/kg (Rattus norvegicus [30]) was 8.33%, the Activity [4] was 5.88% and the Activity (Rattus norvegicus [31]) was “Non-toxic”. The inhibition in vivo at 12 mg/kg (Mus musculus [32]) was 26.2%.
